Experimental data published in patent US8492374B2, “Azaazulene compounds” (Industrial Technology Research Institute, priority 2009, dated 2013).

Columns and labels:
[1] = test system: MV4-11 (FLT3-ITD) cell line; assay: In vitro cell activity assay (MTT cell viability, 72 hours); assay type: cell-based; settings: Homo sapiens, 72 hours at 37° C., 10,000 cells per well, read-out: IC50 against MV4-11
Outline: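 Compound serial dilutions applied to MV4-11 (FLT3-ITD) cells, 10,000 per well, for 72 hours at 37° C. Viability by MTT, formazan dissolved in DMSO, absorbance at 600 nm; IC50 by nonlinear regression as concentration halving absorbance versus untreated cells.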

KDR kinase = biological target: T1, KDR kinase (Homo sapiens, UniProt P35968); assay: KDR kinase DELFIA assay (HTScan VEGFR-2 Kinase Assay Kit); assay type: biochemical; settings: 20 uM ATP
T1 construct: human VEGFR-2 (Val789-Val1356); GST (N); purchased Cell Signaling Technology HTScan VEGFR-2 Kinase Assay Kit; host or cells: baculovirus expression system
T1 sequence (P35968 789-1356): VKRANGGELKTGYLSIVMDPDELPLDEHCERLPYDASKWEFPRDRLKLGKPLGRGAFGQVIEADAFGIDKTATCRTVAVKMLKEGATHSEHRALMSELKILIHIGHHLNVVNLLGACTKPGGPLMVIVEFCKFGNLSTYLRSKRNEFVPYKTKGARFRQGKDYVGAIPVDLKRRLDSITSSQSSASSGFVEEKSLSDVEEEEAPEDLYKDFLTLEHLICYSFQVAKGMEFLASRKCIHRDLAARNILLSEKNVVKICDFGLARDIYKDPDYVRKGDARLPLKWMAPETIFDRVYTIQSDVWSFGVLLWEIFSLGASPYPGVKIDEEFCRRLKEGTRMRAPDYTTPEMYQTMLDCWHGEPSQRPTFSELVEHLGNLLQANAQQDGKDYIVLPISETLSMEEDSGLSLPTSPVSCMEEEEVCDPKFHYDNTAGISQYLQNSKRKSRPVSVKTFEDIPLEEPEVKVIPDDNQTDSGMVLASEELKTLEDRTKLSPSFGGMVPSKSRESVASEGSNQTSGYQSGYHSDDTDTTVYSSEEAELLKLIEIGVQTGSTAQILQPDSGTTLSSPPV
Experimental: Azaazulene Compounds of this invention were treated for their efficacy in inhibiting activities of FLT-3, c-KIT and KDR kinases by biochemical DELFIA (Dissociation Enhanced Lanthanide FIA) assays according to the procedure described below. The assays were conducted by, Division of Cell Engineering, Biomedical Engineering Research Laboratories, Industrial Technology Research Institute, Bldg. 53, 195, sec. 4, Chung Hsing Rd. Chutung, Hsinchu, Taiwan 310, R.O.C.
The KDR assay was conducted following the protocol described in Protocol for HTScan™ VEGFR-2 Kinase Assay Kit (Cell Signaling Technology™).

MAP4K5 (KHS1) = MAP4K5 (KHS1) (Homo sapiens, UniProt Q9Y4K4); assay: Kinase panel assay (SelectScreen Kinase Profiling, Invitrogen); assay type: biochemical; settings: 1000 nM of compound B26
MAP4K5 (KHS1), sequence (Q9Y4K4 whole entry): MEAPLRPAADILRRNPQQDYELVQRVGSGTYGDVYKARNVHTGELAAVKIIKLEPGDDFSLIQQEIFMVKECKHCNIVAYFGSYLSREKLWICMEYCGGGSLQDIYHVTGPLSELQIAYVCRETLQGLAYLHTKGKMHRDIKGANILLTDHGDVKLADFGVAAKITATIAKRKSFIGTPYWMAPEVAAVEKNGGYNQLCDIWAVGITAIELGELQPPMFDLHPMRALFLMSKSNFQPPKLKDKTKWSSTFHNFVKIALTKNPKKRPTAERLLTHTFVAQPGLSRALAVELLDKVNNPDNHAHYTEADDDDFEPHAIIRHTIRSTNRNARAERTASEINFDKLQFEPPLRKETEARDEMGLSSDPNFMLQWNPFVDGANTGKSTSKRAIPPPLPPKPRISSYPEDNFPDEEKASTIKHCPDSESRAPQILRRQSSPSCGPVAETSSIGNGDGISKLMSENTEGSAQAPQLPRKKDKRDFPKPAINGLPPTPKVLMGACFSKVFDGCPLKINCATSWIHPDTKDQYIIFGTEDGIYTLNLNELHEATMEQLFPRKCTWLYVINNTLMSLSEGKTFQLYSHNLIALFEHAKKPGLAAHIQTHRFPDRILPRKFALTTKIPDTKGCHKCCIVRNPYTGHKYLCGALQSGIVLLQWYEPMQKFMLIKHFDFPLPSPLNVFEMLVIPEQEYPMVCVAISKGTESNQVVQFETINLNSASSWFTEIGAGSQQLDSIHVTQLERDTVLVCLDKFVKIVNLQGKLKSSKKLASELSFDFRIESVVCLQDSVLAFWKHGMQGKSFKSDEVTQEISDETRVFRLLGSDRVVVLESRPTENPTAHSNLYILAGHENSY
Experimental: (§1) The kinase panel assay of compound B26 of this invention was performed by SelectScreen® Kinase Profiling Services of Invitrogen. The inhibitory effects of 1000 nM of compound B26 against various kinases whom shown >50% inhibitory effects are summarized in following Table 5.

AMPK A2/B1/G1 = AMPK A2/B1/G1 (Homo sapiens, UniProt P54646); assay: as above; assay type: biochemical; settings: 1000 nM of compound B26
Experimental: as §1

PHKG1 = PHKG1 (Homo sapiens, UniProt Q16816); assay: as above; assay type: biochemical; settings: 1000 nM of compound B26
Experimental: as §1

LYN A = LYN A (Homo sapiens, UniProt P07948); assay: as above; assay type: biochemical; settings: 1000 nM of compound B26
Experimental: as §1

FLT4 (VEGFR3) = FLT4 (VEGFR3) (Homo sapiens, UniProt P35916); assay: as above; assay type: biochemical; settings: 1000 nM of compound B26
FLT4 (VEGFR3), sequence (P35916 25-1363): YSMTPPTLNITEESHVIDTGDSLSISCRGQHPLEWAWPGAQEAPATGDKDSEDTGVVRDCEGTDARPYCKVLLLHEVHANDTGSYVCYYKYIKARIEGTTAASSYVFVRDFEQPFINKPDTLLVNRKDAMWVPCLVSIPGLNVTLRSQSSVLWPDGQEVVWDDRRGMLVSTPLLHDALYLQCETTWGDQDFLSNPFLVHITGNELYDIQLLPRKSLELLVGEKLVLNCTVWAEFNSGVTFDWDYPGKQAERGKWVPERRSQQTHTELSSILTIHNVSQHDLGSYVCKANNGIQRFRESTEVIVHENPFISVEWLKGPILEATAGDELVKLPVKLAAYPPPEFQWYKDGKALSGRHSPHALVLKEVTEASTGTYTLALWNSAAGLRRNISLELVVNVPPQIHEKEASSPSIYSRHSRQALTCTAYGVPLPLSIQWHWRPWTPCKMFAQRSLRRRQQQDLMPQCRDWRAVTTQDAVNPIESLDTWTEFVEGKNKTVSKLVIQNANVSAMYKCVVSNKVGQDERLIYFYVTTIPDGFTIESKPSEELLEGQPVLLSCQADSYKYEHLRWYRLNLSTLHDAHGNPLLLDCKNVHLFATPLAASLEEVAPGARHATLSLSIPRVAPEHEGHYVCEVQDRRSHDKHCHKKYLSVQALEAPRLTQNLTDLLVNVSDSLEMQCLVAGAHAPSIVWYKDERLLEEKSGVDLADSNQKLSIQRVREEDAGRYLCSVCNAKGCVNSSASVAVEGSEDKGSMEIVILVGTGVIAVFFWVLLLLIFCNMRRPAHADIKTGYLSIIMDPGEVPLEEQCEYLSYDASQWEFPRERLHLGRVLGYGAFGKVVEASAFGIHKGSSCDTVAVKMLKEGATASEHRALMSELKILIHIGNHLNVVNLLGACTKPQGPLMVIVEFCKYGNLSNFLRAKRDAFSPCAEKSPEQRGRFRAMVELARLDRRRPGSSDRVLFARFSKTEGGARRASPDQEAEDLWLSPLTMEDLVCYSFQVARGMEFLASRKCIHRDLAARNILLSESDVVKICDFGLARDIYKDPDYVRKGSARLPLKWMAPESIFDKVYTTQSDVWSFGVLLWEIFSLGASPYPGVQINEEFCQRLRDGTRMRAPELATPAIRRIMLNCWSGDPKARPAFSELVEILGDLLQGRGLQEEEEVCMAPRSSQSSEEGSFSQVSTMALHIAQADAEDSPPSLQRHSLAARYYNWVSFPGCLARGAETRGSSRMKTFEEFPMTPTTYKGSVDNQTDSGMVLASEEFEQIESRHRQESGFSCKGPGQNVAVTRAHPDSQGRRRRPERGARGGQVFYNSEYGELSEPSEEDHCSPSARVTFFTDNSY
Experimental: as §1

KIT = KIT (Homo sapiens, UniProt P10721); assay: as above; assay type: biochemical; settings: 1000 nM of compound B26
KIT, sequence (P10721 26-976): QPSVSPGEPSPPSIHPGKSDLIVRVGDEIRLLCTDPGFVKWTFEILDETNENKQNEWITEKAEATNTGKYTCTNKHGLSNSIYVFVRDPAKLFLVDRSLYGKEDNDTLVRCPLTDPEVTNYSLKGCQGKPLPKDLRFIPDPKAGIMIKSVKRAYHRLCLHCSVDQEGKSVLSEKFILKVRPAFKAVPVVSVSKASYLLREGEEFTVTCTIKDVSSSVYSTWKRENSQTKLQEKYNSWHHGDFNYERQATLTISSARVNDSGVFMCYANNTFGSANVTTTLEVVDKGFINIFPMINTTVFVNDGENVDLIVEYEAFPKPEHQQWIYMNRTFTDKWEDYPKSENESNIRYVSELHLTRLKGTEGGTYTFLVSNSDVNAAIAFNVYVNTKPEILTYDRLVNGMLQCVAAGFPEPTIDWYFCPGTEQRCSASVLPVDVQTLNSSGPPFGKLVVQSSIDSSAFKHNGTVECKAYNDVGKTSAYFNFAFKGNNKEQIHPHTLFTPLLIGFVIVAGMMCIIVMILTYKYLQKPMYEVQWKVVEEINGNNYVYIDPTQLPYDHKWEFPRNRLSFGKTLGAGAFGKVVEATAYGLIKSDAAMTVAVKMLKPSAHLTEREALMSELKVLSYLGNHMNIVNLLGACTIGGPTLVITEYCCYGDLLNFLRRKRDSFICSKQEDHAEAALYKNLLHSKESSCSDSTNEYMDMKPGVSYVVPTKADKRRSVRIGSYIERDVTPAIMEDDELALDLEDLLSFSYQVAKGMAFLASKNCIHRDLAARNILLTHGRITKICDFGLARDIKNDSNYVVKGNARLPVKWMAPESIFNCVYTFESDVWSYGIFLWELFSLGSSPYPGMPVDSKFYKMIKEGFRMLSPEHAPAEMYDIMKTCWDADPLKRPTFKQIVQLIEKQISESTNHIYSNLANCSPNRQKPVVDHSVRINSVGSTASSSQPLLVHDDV
Experimental: as §1

RET V804L = RET V804L (Homo sapiens, UniProt P07949, V804L); assay: as above; assay type: biochemical; settings: 1000 nM of compound B26
Experimental: as §1

FLT3 = FLT3 (Homo sapiens, UniProt P36888); assay: as above; assay type: biochemical; settings: 1000 nM of compound B26
Experimental: as §1

STK4 (MST1) = STK4 (MST1) (Homo sapiens, UniProt Q13043); assay: as above; assay type: biochemical; settings: 1000 nM of compound B26
Experimental: as §1

CSF1R (FMS) = CSF1R (FMS) (Homo sapiens, UniProt P07333); assay: as above; assay type: biochemical; settings: 1000 nM of compound B26
Experimental: as §1

LYN B = LYN B (Homo sapiens, UniProt P07948); assay: as above; assay type: biochemical; settings: 1000 nM of compound B26
LYN B, sequence (P07948 1-491 isoform P07948-2): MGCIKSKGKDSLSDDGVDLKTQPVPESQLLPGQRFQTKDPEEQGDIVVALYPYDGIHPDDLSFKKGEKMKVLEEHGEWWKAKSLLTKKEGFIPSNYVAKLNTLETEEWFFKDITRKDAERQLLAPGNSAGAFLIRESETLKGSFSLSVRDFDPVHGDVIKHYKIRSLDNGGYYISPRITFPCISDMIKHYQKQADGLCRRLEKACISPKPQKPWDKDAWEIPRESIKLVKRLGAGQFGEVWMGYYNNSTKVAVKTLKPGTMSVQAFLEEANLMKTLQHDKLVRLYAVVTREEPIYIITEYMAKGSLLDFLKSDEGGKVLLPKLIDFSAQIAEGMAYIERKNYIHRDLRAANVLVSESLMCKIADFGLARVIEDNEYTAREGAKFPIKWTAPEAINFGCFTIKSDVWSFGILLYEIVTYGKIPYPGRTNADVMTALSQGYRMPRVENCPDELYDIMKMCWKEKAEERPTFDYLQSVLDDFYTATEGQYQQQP
Experimental: as §1

NTRK2 (TRKB) = NTRK2 (TRKB) (Homo sapiens, UniProt Q16620); assay: as above; assay type: biochemical; settings: 1000 nM of compound B26
NTRK2 (TRKB), sequence (Q16620 32-822): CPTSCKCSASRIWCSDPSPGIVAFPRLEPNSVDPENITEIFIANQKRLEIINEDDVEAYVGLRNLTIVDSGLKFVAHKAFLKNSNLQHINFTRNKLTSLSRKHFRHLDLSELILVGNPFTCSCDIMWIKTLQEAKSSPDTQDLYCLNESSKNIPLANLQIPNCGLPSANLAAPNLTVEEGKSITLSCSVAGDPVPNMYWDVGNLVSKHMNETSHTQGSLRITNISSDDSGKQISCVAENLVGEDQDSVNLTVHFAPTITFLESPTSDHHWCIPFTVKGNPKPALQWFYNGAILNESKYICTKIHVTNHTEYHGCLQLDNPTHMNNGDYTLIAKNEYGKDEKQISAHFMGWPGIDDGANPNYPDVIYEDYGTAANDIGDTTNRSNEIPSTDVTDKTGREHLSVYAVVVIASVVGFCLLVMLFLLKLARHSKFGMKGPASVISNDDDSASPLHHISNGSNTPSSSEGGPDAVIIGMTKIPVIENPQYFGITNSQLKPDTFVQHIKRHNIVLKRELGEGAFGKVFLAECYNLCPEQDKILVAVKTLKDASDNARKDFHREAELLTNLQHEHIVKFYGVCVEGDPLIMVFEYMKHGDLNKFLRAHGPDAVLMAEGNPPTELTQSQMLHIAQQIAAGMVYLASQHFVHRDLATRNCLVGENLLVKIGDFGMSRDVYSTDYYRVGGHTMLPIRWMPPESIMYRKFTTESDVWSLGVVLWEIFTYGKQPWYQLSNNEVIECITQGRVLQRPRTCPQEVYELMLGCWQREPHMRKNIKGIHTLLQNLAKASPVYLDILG
Experimental: as §1

[2] = test system: MV4-11 (FLT3-ITD) subcutaneous tumor xenograft; assay: MV4-11 subcutaneous tumor xenograft model; assay type: in vivo, BALB/c nude mice; settings: for tumor complete regression of all mouse: oral gavage
Experimental: The procedures for establishing tumor xenografts and the dosing of B26 were carried out and accordance with ITRI institutional animal care and use committee in an IACUC. Female BALB/c nude mice (6 to 8 weeks old) were purchased from BioLASCO Co., Ltd. (Taipei, Taiwan). Female BALB/c nude mice were implanted subcutaneously in the right flank with 1×10^7 MV4-11 (FLT3-ITD) cells per mice. Treatments were initiated when tumors were 150 to 200 mm^3 in size. Mice were randomly assigned into cohorts (typically 4 mice per group for efficacy studies). B26 (50 and 150 mg/kg, bid.) and vehicle were given via oral gavage for 14 days from the 16th day after inoculation. Tumor volumes were assessed everyday and body weights were assessed two times weekly. Caliper measurements of tumors were converted into mean tumor volume using the formula: 0.5×[length×(width)^2].
Compound B26 of this invention is a novel and potent FLT3 inhibitor with promising anti-tumor and anti-leukemia activity.

FLT-3 kinase = biological target: T2, FLT-3 kinase (Homo sapiens, UniProt P36888); assay: FLT-3 kinase DELFIA assay (HTScan FLT-3 Kinase Assay Kit); assay type: biochemical; settings: 20 uM ATP
T2 construct: human FLT-3 (Arg571-Ser993); GST (N); purchased Cell Signaling Technology HTScan FLT-3 Kinase Assay Kit; host or cells: baculovirus expression system
T2 sequence (P36888 571-993): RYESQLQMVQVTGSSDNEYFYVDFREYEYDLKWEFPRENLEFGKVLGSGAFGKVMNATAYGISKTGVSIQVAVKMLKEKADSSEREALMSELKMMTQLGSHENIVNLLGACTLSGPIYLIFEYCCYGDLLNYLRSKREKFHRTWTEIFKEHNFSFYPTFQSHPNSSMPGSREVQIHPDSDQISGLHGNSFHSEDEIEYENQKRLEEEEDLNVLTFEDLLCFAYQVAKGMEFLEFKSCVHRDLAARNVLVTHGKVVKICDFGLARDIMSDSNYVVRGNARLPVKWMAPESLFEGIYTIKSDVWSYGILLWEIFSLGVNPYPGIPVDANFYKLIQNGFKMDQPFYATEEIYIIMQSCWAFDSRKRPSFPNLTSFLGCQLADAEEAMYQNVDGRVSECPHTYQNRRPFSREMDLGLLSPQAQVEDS

CN1CCN(c2ccc3[nH]c(-c4c5cccccc-5[nH]c4=O)nc3c2)CC1 [Compound B26]
IC50 [1]: 21.1 nM
inhibition at 0.1 µM (KDR kinase; 0.1 uM compound, read-out: Kinases inhibitory activities against KDR kinase, 0.1 uM): 71.3%
inhibition at 1 µM (KDR kinase; 1 uM compound, read-out: Kinases inhibitory activities against KDR kinase, 1 uM): 96.9%
inhibition at 1 µM (MAP4K5 (KHS1)): 60%
inhibition at 1 µM (AMPK A2/B1/G1): 70%
inhibition at 1 µM (PHKG1): 53%
inhibition at 1 µM (LYN A): 57%
inhibition at 1 µM (FLT4 (VEGFR3)): 50%
inhibition at 1 µM (KIT): 61%
inhibition at 1 µM (RET V804L): 79%
inhibition at 1 µM (FLT3): 95%
inhibition at 1 µM (STK4 (MST1)): 59%
inhibition at 1 µM (CSF1R (FMS)): 60%
inhibition at 1 µM (LYN B): 51%
inhibition at 1 µM (NTRK2 (TRKB)): 84%
tumor complete regression of all mouse ([2]; 50 mg/kg (bid)): 9 days
tumor complete regression of all mouse ([2]; 150 mg/kg (bid)): 7 days
antitumor effect ([2]; oral, 50 or 150 mg/kg bid for 14 days): potent and significant antitumor effect in a dose-dependent manner
inhibition at 0.1 µM (FLT-3 kinase; 0.1 uM compound): 45.6%
inhibition at 1 µM (FLT-3 kinase; 1 uM compound): 91.2%
